Test results taken from BindingDB's records for doi:10.1016/0922-4106(95)90014-4 (University of Cagliari, 1995).
Values joined by “and” are separate entries in the source; they are usually repeats but may differ in a detail not shown here. Equal values may be shown once.

Target: Gamma-aminobutyric acid receptor subunit alpha-1 (Rattus norvegicus, UniProt P62813)
Sequence (P62813 whole entry): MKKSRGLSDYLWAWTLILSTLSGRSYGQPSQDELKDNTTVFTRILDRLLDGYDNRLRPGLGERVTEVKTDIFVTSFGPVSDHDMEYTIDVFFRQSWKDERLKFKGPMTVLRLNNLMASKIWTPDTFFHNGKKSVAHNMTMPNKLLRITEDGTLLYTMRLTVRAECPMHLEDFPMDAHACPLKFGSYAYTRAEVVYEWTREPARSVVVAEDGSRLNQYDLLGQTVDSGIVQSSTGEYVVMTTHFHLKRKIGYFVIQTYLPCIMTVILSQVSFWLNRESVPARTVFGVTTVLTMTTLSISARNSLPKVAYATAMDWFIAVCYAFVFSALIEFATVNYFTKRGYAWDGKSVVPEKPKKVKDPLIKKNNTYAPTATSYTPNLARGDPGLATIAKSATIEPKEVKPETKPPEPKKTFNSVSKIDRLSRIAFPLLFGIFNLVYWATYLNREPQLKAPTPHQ

`CN1C(=O)CN=C(c2ccccc2F)c2cc([N+](=O)[O-])ccc21` [Flunitrazepam] was tested, and the Ki was 1.37 nM and 1.52 nM.

With `Cc1nnc2ccc(-c3cccc(C(F)(F)F)c3)nn12` the Ki was 1310 nM.
